Measured values from article PMC9827882, “Templated Generation of a Bcl‐xL Inhibitor by Isomer‐Free SPAAC Based on Azacyclonon‐5‐yne” (Chemistry (Weinheim an Der Bergstrasse, Germany), 2022).
Blank lines part the entries; values can stand above or below the compound they belong to.

Columns and labels:
Bcl‐xL [1] = biological target: T1, Bcl‐xL (Homo sapiens, UniProt Q07817, DEL45-84); test: Competitive fluorescence polarization (FP) binding assay: Bcl‐xL and fluorescein‐labeled Bak BH3‐derived peptide; conditions: for IC50: Bcl‐xL 37 nM, Bak BH3 peptide 4 nM, triplicate, read-out: IC50 against Bcl‐xL in FP assay
T1 construct: The protein Bcl‐xL (amino acids 1‐209, Δ45–84, kindly provided by Prof. Ho Sup Yoon); gift of Prof; Ho Sup Yoon, Nanyang Technological University, Singapore
Experimental: The abilities of triazoles 11 a/c to interfere with binding between Bcl‐xL and a fluorescein‐labeled peptide derived from the pro‐apoptotic Bcl‐2 protein Bak was analyzed in a competitive binding assay based on fluorescence polarization (FP).[9, 20]
Fluorescence polarization assays: Assays were performed essentially as described previously.[20, 30] The protein Bcl‐xL (amino acids 1‐209, Δ45–84, kindly provided by Prof. Ho Sup Yoon, Nanyang Technological University, Singapore)[31] was incubated with the test compounds for 1 h at room temperature at a protein concentration of 37 nM. Subsequently, fluorophore‐labeled Bak BH3‐derived peptide (5‐carboxyfluorescein‐[…]‐NH2 was added (final peptide concentration: 4 nM), and the fluorescence polarization was measured after another 60 min in a plate reader (Tecan Infinite F500). All experiments were carried out in triplicate. Buffer composition: 10 mM Tris pH 8.0, 50 mM NaCl, 1 mM EDTA, 0.1 % Nonidet P‐40 substitute, 1 mM DTT, and 2 % DMSO.

Bcl‐xL [2] = biological target: T1, Bcl‐xL; test: Kinetic analysis by HPLC of the reaction between 12 d and 13 to generate 11 d in aqueous buffer, templated by Bcl‐xL; conditions: for second‐order rate constant k of formation of 11 d from 12 d and 13: 12 d and 13 both 50 μM; for second‐order rate constant k of formation of 11 d from 12 d and 13 / rate acceleration over the reaction of 1 and benzyl azide in acetonitrile at room temperature: aqueous buffer, 37 °C
Experimental: While the reactivities of cycloalkynes are typically characterized by their second‐order rate constants in the reaction with benzylazide in CD3CN, or sometimes CD3OD, the relevant reactivity of a cycloalkyne for use in iSPAAC is the reactivity between the functionalized cycloalkyne and the functionalized azide in aqueous media at the physiological temperature of 37 °C. We therefore analyzed the kinetics of the reaction between the functionalized cycloalkyne 12 d and the azide 13 in aqueous buffer by reversed‐phase (RP)‐HPLC. Incubation of 12 d and 13 (both at 50 μM) at 37 °C generated the triazole 11 d with a second‐order rate constant of 2.1±0.2×10^−3 M^−1 s^−1 (Figures 7 and S6). This represents a 450‐fold rate acceleration over the reaction of 1 and benzyl azide in acetonitrile at room temperature (k=4.7±0.1×10^−6 M^−1 s^−1). In the presence of an additional, equimolar amount of Bcl‐xL, this rate was further increased by a factor of 6 (k=1.33±0.06×10^−2 M^−1 s^−1), representing a 2800‐fold higher rate constant than observed in the standard reaction between 1 and benzyl azide in acetonitrile at room temperature. […] Of particular relevance in this context are the templated synthesis of sulfonamide‐based Bcl‐xL inhibitors using sulfonyl azides and thioacids,[23] and protein‐templated formation of 1,2,3‐triazoles from azides and terminal alkynes in the absence of Cu^I.[24]
Kinetic analysis by HPLC: 12 d (50 μM) and 13 (50 μM) were incubated at 37 °C in the absence of Bcl‐xL, in the presence of Bcl‐xL (50 μM), and in the presence of both Bcl‐xL (50 μM) and ABT‐737 (50 μM). At the given time points, aliquots of 60 μL were diluted with 60 μL of 0.1 % TFA in 4.5 % acetonitrile/H2O and analyzed by RP‐HPLC (100 μL injection volume). The formation of 11 d was quantified by peak area using a standard curve. 1/(50×10^−6−[11 d]) [M^−1] was plotted against time. Linear regression gave the second‐order rate constant k as the slope. Experiments were carried out in triplicate. Buffer composition: 10 mM Tris pH 8.0, 50 mM NaCl, 1 mM EDTA, 0.1 % Nonidet P‐40 substitute, and 4 % DMSO.

[3] = set-up: method as in PMID 18451170; conditions: cited from earlier work
[4] = set-up: method as in PMID 18451170; conditions: cited from earlier work; remark: listed apart in the source

T1 sequence (Q07817 with tags, fused parts or gaps DEL45-84): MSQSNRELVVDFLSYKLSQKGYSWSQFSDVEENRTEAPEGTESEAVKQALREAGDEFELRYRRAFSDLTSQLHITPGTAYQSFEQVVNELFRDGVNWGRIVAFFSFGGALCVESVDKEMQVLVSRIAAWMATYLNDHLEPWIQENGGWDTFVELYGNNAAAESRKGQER

Structure (SMILES): O=C(OCC1=C(c2ccc(Cl)cc2)CCNC1)N1CCCC#CCCC1 [12 d]
activity against Bcl‐xL in FP assay (in words) (Bcl‐xL [1]; 100 μM, FP assay): inactive | activity against Bcl‐xL in FP assay (in words) (Bcl‐xL [1]; 100 μM, FP assay, listed as 12d): no inhibition

Structure (SMILES): CN(C)CC[C@H](CSc1ccccc1)Nc1ccc(S(=O)(=O)NC(=O)CN=[N+]=[N-])cc1[N+](=O)[O-] [compound 13]
inhibition at 100 µM (Bcl‐xL [1]; 100 μM, FP assay): 48 ± 3%

Structure (SMILES): CN(C)CC[C@H](CSc1ccccc1)Nc1ccc(S(=O)(=O)NC(=O)Cn2nnc3c2CCCN(C(=O)OCc2ccccc2-c2ccc(Cl)cc2)CCC3)cc1[N+](=O)[O-] [11 c]
IC50 (Bcl‐xL [1]): 11.4 ± 0.9 µM

Structure (SMILES): CN(C)CC[C@H](CSc1ccccc1)Nc1ccc(S(=O)(=O)NC(=O)Cn2nnc3c2CCCN(C(=O)OCC2=C(c4ccc(Cl)cc4)CCNC2)CCC3)cc1[N+](=O)[O-] [11 d]
IC50 (Bcl‐xL [1]): 2.42 ± 0.02 µM | almost 5-fold higher inhibitory potency of 11 d than 11 c (Bcl‐xL [1]; ratio of IC50 values, 11 d vs 11 c): ~5 fold | second‐order rate constant k of formation of 11 d from 12 d and 13 (Bcl‐xL [2]; equimolar Bcl‐xL (50 μM)): 1.33±0.06×10^−2 M^−1 s^−1 | rate acceleration over the reaction of 1 and benzyl azide in acetonitrile at room temperature (Bcl‐xL [2]; no Bcl‐xL): 450 fold | second‐order rate constant k of formation of 11 d from 12 d and 13 (Bcl‐xL [2]; no Bcl‐xL, RP‐HPLC): 2.1±0.2×10^−3 M^−1 s^−1 | rate increase by Bcl‐xL (template effect) (Bcl‐xL [2]; with equimolar Bcl‐xL vs without Bcl‐xL): 6 factor | rate acceleration over the reaction of 1 and benzyl azide in acetonitrile at room temperature (Bcl‐xL [2]; with equimolar Bcl‐xL): 2800 fold

Structure (SMILES): CN(C)CC[C@H](CSc1ccccc1)Nc1ccc(S(=O)(=O)NC(=O)c2ccc(N3CCN(Cc4ccccc4-c4ccc(Cl)cc4)CC3)cc2)cc1[N+](=O)[O-] [ABT‐737]
cell permeability in tissue culture [3]: cell‐permeable | oral bioavailability [4]: poor

Next, values leading:

IC50 (Bcl‐xL [1]): 18 ± 0.7 µM
Structure (SMILES): CN(C)CC[C@H](CSc1ccccc1)Nc1ccc(S(=O)(=O)NC(=O)Cn2nnc3c2CCCN(C(=O)c2ccccc2-c2ccc(Cl)cc2)CCC3)cc1[N+](=O)[O-] [11 a]

activity against Bcl‐xL in FP assay (in words) (Bcl‐xL [1]; 100 μM, FP assay): inactive | activity against Bcl‐xL in FP assay (in words) (Bcl‐xL [1]; 100 μM, FP assay, listed as 12c): no inhibition
Structure (SMILES): O=C(OCc1ccccc1-c1ccc(Cl)cc1)N1CCCC#CCCC1 [12 c]

activity against Bcl‐xL in FP assay (in words) (Bcl‐xL [1]; 100 μM, FP assay): inactive | activity against Bcl‐xL in FP assay (in words) (Bcl‐xL [1]; 100 μM, FP assay, listed as 12a): no inhibition
Structure (SMILES): O=C(c1ccccc1-c1ccc(Cl)cc1)N1CCCC#CCCC1 [12 a]
